For the assay, the target named is T1, GSK3α (Homo sapiens, UniProt P49840).
T1 construct: gene GSK3A
T1 sequence (P49840 2-483): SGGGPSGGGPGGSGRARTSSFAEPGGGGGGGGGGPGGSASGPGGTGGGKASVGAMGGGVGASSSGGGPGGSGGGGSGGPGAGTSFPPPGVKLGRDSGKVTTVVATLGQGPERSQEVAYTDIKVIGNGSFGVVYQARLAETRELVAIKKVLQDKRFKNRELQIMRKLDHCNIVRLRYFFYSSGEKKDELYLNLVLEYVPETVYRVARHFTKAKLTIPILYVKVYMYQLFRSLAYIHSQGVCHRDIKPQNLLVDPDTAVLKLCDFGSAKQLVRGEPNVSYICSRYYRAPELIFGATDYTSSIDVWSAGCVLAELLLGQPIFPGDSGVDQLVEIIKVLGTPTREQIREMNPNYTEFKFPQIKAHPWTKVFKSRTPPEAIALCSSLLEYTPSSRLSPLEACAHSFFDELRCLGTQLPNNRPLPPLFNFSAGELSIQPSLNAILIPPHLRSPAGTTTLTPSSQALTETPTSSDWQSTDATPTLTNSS

Consider `Cc1c[nH]c(-c2cnc(NCCNc3ccc(C#N)cn3)nc2-c2ccc(Cl)cc2Cl)n1` [CHIR-99021], for which the “MIB-MS chemoproteomic competition (loss of kinase binding to inhibitor beads) af” value was “This effect of CHIR-99021 was similar between the two GSK isoforms, GSK3α and GSK3β (Fig. 5C) in both NPC and neurons”.
